From patent publication US11524021B2, “Use of ginsenoside M1 for manufacturing medicament for treating oral cancer” (priority 2018, dated 2022)

Experiments:
Format in all cases: cell-based
[1] = tested on: human oral cancer cells OECM-1; assay: PI/Annexin V double staining assay by flow cytometry; conditions: 24 h
Protocol: (§1) Human oral cancer cell line OECM-1 cells were incubated for 24 h with ginsenoside M1 (10˜20 μg/ml), 50 μM cistaplatin (CDDP) or vehicle (0.1% DMSO). (FIG. 3A) The apoptotic DNA breaks was assayed by terminal deoxynucleotidyl transferase dUTP nick end labeling (TUNEL) assay using flow cytometry. (FIG. 3B) The cell cycle distribution was determined by PI staining using flow cytometry. (FIG. 3C) The apoptosis level was measured by PI/Annexin V double staining assay using flow cytometry. (FIG. 3D) The activation levels of caspase-9 and caspase-3 were measured by detecting the degradation of pro-caspase-9 and pro-caspase-3 using Western blotting. […] (One-way ANOVA with Dunnett's multiple comparisons test).
(§2) To gain further insight into the mode of action of ginsenoside M1, three assays targeting hallmarks of apoptosis, namely (1) the apoptotic DNA breaks assayed by terminal deoxynucleotidyl transferase dUTP nick end labeling (TUNEL) assay, (2) the cell cycle assayed by flow cytometry after propidium iodide (PI)-staining nuclei, (3) the PI/Annexin V double staining assay, and (4) caspase activation were performed. Plate 1×10^6 human oral cancer cells OECM-1 per 6-cm dish in 2 ml of culture medium and were grown overnight at 37° C. in a 5% CO2 incubator. The cells were incubated for 24 h with ginsenoside M1 (10˜20 μg/ml), 50 μM cistaplatin (CDDP) or vehicle. Each group contains a final DMSO concentration of 0.1%. Thereafter, three assays were performed. […] The cells in sub-G1 phase increased after treatment with ginsenoside M1 and CDDP. (FIG. 3B). […] The data were expressed as mean±SD; n=3. ** and *** indicate a significant difference at the level of p<0.01 and p<0.001, respectively, compared to vehicle-control cells. (One-way ANOVA with Dunnett's multiple comparisons test).

[2] = tested on: normal human gingival epithelioid cell line SG; assay: Toxicity to normal human gingival epithelioid SG cells, Trypan blue exclusion; conditions: 20 μg/ml, 24 h
Protocol: (§3) Human normal human gingival epithelioid cell line SG cells were incubated for 24 h with ginsenoside M1 (5˜20 μg/ml), ginsenoside Rh2 (5˜20 μg/ml) or vehicle (0.1% DMSO). The live cell numbers were counted by Trypan blue exclusion method. The data were expressed as mean±SD; n=3. ** and *** indicate a significant difference at the level of p<0.01 and p<0.001, respectively, compared to vehicle-control cells. (One-way ANOVA with Dunnett's multiple comparisons test).
as §3, with “Plate 5×10^5” for “Human”, “SG per 6-cm dish in 2 ml of culture medium and were grown overnight at 37° C. in a 5% CO2 incubator. The” for “SG”, “vehicle. Each group contains a final DMSO concentration of 0.1%. Thereafter, the” for “vehicle (0.1% DMSO). The live”, “method. […]” for “method.”

[3] = tested on: human oral cancer cells SAS; assay: Colony formation of SAS cells; conditions: 5˜20 μg/ml, 10 days
Protocol: FIGS. 4A-4B show ginsenoside M1 reduced the colony formation ability of human oral cancer cells. Human oral cancer cell line SAS cells (FIG. 4A) or OECM-1 cells (FIG. 4B) were incubated for 10 days with ginsenoside M1 (5˜20 μg/ml) or vehicle (0.1% DMSO). The cells were fixed in 4% ice-cold paraformaldehyde and stained with 0.1% crystal violet, and the colonies were counted. The data were expressed as mean±SD; n=4. * and *** indicate a significant difference at the level of p<0.05 and p<0.001, respectively, compared to vehicle-control cells. (One-way ANOVA with Dunnett's multiple comparisons test).
Plate 150 human oral cancer cells SAS or OECM-1 per 6-cm dish in 3 ml of culture medium and were grown overnight at 37° C. in a 5% CO2 incubator. The cells were incubated for 10 days with ginsenoside M1 (5˜20 μg/ml) or vehicle. The cells were changed for fresh medium containing the same concentration of ginsenoside M1 at day 5. The cells were fixed in 4% ice-cold paraformaldehyde for 15 min at […], and stained with 0.1% crystal violet 10 min at room temperature. […] The data were expressed as mean±SD; n=4. * and *** indicate a significant difference at the level of p<0.05 and p<0.001, respectively, compared to vehicle-control cells. (One-way ANOVA with Dunnett's multiple comparisons test).

[4] = tested on: human oral cancer cells OECM-1; assay: Apoptotic DNA breaks, TUNEL assay by flow cytometry; conditions: 24 h
Protocol: as §1, §2

## CC(C)=CCC[C@](C)(O[C@@H]1OC(CO)[C@@H](O)[C@@H](O)C1O)[C@H]1CC[C@]2(C)C1[C@H](O)CC1[C@@]3(C)CC[C@H](O)C(C)(C)C3CC[C@]12C (stereo partly drawn) [ginsenoside M1, 20-O-β-D-glucopyranosyl-20(S)-protopanaxadiol]
[1]; 10 μg/ml
  percentage of OECM-1 cells with PI/Annexin V double positive staining: not 10 μg/ml ginsenoside M1 significantly increased
[1]; 20 μg/ml
  percentage of OECM-1 cells with PI/Annexin V double positive staining: significantly increased
[2]
  reduction of SG cell number compared to control cells: 50%
[3]
  colony formation ability of SAS cells: dose-dependently inhibited
[4]; 10 μg/ml
  apoptotic DNA breaks in OECM-1 cells: not 10 μg/ml ginsenoside M1 significantly induced
[4]; 20 μg/ml
  apoptotic DNA breaks in OECM-1 cells: significantly induced
